This is an account of results in patent publication US20210315893A1 (Galapagos NV, priority 2017, published 2021).

Where only a bound is given, the exact number is not on record here.

Assay [1] concerns the target T1, human GPCR sphingosine 1-phosphate receptor 2 (Homo sapiens, UniProt O95136).
T1 construct: host or cells: CHO
As to the kind of experiment: S1PR2 antagonist Ca2+ flux assay. To be noted: antagonist mode, CHO-S1PR2 cells, S1P at EC80, Ca2+ fluorescence; read-out: S1P2 EC50 (nM), S1P2 antagonist EC50. In kind it is cell-based. In outline: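 Antagonist mode: 15 min after compound addition, S1P (EC80) stimulates Fluo8-loaded, 1 h-starved CHO-S1PR2 cells, Ca2+ read over 3 min; a prior 3-min read checks compound agonism. EC50 from peak/baseline fluorescence ratio, normalised versus vehicle and S1P EC50 (antagonist) or EC100 (agonist).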
(In general: Calcium flux is commonly read through the fluorescence of an indicator in the cells.)

Assay [2] concerns the target T2, human GPCR sphingosine 1-phosphate receptor 1 (Homo sapiens, UniProt P21453).
T2 construct: host or cells: CHO
In words: S1PR1 selectivity Ca2+ flux assay (antagonist readout). In kind it is cell-based. To be noted: antagonist readout, CHO cells overexpressing human S1PR1 and Gq, S1P at EC80 (6 nM); read-out: S1P1 EC50 (nM), S1P1 antagonist EC50. The method in brief: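 Antagonist mode: S1P challenge follows 15 min compound preincubation at 37 °C. Cells are CHO stably expressing human S1PR1, serum-starved 1 h (0.1% FAF BSA), loaded with Fluo 8. Peak-over-baseline fluorescence ratio is normalized to positive/negative controls; IC50 from logistic curve fit.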

The target of assay [3] is T3, human GPCR sphingosine 1-phosphate receptor 5 (Homo sapiens, UniProt Q9H228).
T3 construct: host or cells: CHO
T3 sequence (Q9H228 whole entry): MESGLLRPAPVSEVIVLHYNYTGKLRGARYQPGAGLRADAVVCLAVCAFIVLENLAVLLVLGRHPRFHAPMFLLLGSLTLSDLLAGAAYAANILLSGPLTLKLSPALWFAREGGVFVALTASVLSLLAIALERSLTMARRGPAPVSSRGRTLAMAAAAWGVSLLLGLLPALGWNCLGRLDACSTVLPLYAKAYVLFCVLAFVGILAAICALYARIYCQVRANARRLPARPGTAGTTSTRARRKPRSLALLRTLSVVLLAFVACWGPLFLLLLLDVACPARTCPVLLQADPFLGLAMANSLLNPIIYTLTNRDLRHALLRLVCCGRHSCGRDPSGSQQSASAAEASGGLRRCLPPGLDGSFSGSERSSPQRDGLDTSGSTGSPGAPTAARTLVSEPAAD
In words: S1PR5 selectivity Ca2+ flux assay (antagonist readout). To be noted: CHO cells overexpressing human S1PR5 and Gq, agonist at EC80 (20 nM), read-out: S1P5 EC50 (nM), S1P5 antagonist EC50. In kind it is cell-based. The method in brief: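 Antagonist readout: after 15 min compound preincubation at 37° C, human S1PR5/Gq CHO cells loaded with Fluo 8 dye received an EC80 challenge of S1PR5-specific agonist, and fluorescence was recorded for 3 min. Maximal-over-background ratios, normalized as % inhibition, gave IC50 by logistic fit.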

Another assay addresses T4, S1PR2 (Homo sapiens, UniProt O95136).
T4 construct: expressed in transfected cells
In words: S1PR2 binding assay (competition with radioactively labeled S1P, SpA). To be noted: membranes from stable cell line over expressing S1PR2, SpA beads; read-out: S1P2 EC50 (nM), S1PR2 binding EC50. The method in brief:
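Scintillation proximity read-out after 2 h room-temperature incubation of compound, [3H]S1P and S1PR2-overexpressing cell membranes on WGA-coated beads. Buffer: 20 mM Tris pH 7.5, 100 mM NaCl, 10 mM MgCl2, 1 mM Na3VO4, 0.4% fatty-acid-free BSA; plates counted immediately after centrifugation.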

For assay [4], the system named is HFL-1 cells. As to the kind of experiment: IL-8 production assay (S1P induced IL-8). To be noted: Homo sapiens, HFL1; S1P (1 μM) induced IL-8 in HFL-1 cells, starvation medium without HSA; read-out: IL8 EC50. In kind it is cell-based. In outline: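 HFL-1 fibroblasts in low-serum medium were pretreated 1 h with a 10-point 1/3 series of compound starting at 30 μM (0.3% DMSO).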

Assay [5] has as its system HFL-1 cells. As to the kind of experiment: IL8 assay in the presence of Human Serum Albumin. The note with it: HFL1, read-out: HSA IL8 EC50.

T2 sequence (P21453 whole entry): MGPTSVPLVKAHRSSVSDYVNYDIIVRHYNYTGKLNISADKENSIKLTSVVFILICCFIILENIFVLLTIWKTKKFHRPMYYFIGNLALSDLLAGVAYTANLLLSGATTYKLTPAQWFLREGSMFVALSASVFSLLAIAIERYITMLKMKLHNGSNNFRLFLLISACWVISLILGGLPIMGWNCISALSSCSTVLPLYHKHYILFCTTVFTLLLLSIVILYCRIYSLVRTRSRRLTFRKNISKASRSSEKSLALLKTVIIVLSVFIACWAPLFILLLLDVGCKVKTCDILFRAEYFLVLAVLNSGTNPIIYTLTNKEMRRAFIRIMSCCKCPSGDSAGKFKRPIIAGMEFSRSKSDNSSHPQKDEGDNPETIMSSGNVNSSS
T1 sequence (O95136 whole entry): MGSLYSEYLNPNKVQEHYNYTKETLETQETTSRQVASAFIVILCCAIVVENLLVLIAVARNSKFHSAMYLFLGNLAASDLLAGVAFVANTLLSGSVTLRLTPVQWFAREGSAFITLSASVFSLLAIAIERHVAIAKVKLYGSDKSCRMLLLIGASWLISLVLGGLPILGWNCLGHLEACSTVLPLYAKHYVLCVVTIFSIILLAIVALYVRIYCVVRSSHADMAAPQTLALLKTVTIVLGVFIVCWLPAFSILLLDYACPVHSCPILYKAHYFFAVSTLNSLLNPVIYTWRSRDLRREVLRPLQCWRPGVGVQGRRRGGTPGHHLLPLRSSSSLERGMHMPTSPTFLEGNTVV
T4 sequence (O95136 whole entry): as above

A word on the EC50: it is the concentration at which the effect is half-maximal. For the molecule `CC(C(=O)O)n1nc(Cn2cc3cc(OCC4CC4)c(Cl)cc3n2)c2cc(C#N)ccc2c1=O` (stereo not drawn) [Compound 92, 2-[4-[[6-chloro-5-(cyclopropylmethoxy)indazol-2-yl]methyl]-6-cyano-1-oxo-phthalazin-2-yl]propanoic acid], the EC50 is 8.99 nM in assay [1]; 13200 nM in assay [2]; 19800 nM in assay [3]; 32.1 nM on S1PR2; 4.41 nM in the assay with HFL-1 cells [4]; 544 nM in the assay with HFL-1 cells [5].
`CC(C(=O)O)n1nc(Cn2cc3cc(OCC4CC4)c(Cl)cc3n2)c2c(c1=O)CCCC2` (stereo not drawn) [Compound 93, 2-[4-[[6-chloro-5-(cyclopropylmethoxy)indazol-2-yl]methyl]-1-oxo-5,6,7,8-tetrahydrophthalazin-2-yl]propanoic acid]: the EC50 was 8.99 nM in assay [1]; ≥ 19800 nM in assay [2]; 19800 nM in assay [3]; 22.4 nM at S1PR2; 3.04 nM with HFL-1 cells [4]; 22.8 nM in the assay with HFL-1 cells [5].
As for `O=C(O)C1(n2nc(Cn3cc4cc(OCC5CC5)c(Cl)cc4n3)c3ccccc3c2=O)CC1` [Compound 95, 1-[4-[[6-chloro-5-(cyclopropylmethoxy)indazol-2-yl]methyl]-1-oxo-phthalazin-2-yl]cyclopropanecarboxylic acid], the EC50 in assay [1] was 19.4 nM; in assay [2] it was ≥ 19800 nM; in assay [3] it was 19800 nM; on S1PR2, 208 nM; in the assay with HFL-1 cells [4], 53.4 nM; in the assay on HFL-1 cells [5], 1830 nM.
With `COc1ccc2c(Cn3cc4cc(OCC5CC5)c(Cl)cc4n3)nn(C(C)C(=O)O)c(=O)c2c1` (stereo not drawn) [Compound 97, 2-[4-[[6-chloro-5-(cyclopropylmethoxy)indazol-2-yl]methyl]-7-methoxy-1-oxo-phthalazin-2-yl]propanoic acid], the EC50 in assay [1] was 53.4 nM; in assay [2] it was ≥ 19800 nM; in assay [3], 19800 nM; at S1PR2, 432 nM; with HFL-1 cells [4], 60.5 nM; in the assay with HFL-1 cells [5] it was 5700 nM.
For the molecule `O=C(O)Cc1nn(Cc2cn3cc(OCC4CC4)c(Cl)cc3n2)c2cc(F)ccc2c1=O` [Compound 101, 2-[1-[[7-chloro-6-(cyclopropylmethoxy)imidazo[1,2-a]pyridin-2-yl]methyl]-7-fluoro-4-oxo-cinnolin-3-yl]acetic acid], the EC50 was 3.48 nM in assay [1]; ≥ 19800 nM in assay [2]; 19800 nM in assay [3]; 33.2 nM at S1PR2; 6.74 nM in the assay on HFL-1 cells [4]; 154 nM with HFL-1 cells [5].
With `O=C(O)c1cn(Cc2nc3cc(OCC4CC4)c(C(F)(F)F)cc3[nH]2)c2ccccc2c1=O` [Compound 106, (1-[[5-(cyclopropyl-methoxy)-6-(trifluoromethyl)-1H-benzimidazol-2-yl]methyl]-4-oxoquinoline-3-carboxylic acid)], the EC50 in assay [1] came out at 3.45 nM; in assay [2] it was 830 nM; in assay [3], 19800 nM; at S1PR2 it was 14.1 nM; in the assay on HFL-1 cells [4] it was 1.86 nM; with HFL-1 cells [5], 98.9 nM.
As for `CC(C(=O)O)c1nn(Cc2nc3cc(OCC4CC4)c(C#N)cc3[nH]2)c2ccccc2c1=O` (stereo not drawn) [Compound 107, 2-[1-[[6-cyano-5-(cyclopropylmethoxy)-1H-benzimidazol-2-yl]methyl]-4-oxo-cinnolin-3-yl]propanoic acid], the EC50 amounted to 3.49 nM in assay [1]; 2150 nM in assay [2]; 19800 nM in assay [3]; 52.9 nM on S1PR2; 0.986 nM in the assay on HFL-1 cells [4]; 7.56 nM with HFL-1 cells [5].
As to `N#Cc1cc2[nH]c(Cn3nc(CC(=O)O)c(=O)c4ccccc43)nc2cc1OCC1CC1` [Compound 108, 2-[1-[[6-cyano-5-(cyclopropylmethoxy)-1H-benzimidazol-2-yl]methyl]-4-oxo-cinnolin-3-yl]acetic acid], the EC50 in assay [1] is 2.94 nM; in assay [2] it was 3080 nM; in assay [3] it was 19800 nM; on S1PR2, 9.21 nM; in the assay with HFL-1 cells [4] it was 1.54 nM; in the assay with HFL-1 cells [5] it was 5.89 nM.
Turning to `O=C(O)Cn1nc(Cc2nc3cc(Cl)c(OCC4CC4)c(F)c3[nH]2)c2ccccc2c1=O` [Compound 116, 2-[4-[[5-chloro-6-(cyclopropylmethoxy)-7-fluoro-1H-benzimidazol-2-yl]methyl]-1-oxo-phthalazin-2-yl]acetic acid], the EC50 is 25.2 nM in assay [1]; ≥ 19800 nM in assay [2]; 19900 nM in assay [3]; 183 nM at S1PR2; 77.8 nM in the assay with HFL-1 cells [4]; 566 nM with HFL-1 cells [5].
With `O=C(O)Cn1nc(Cc2nc3cc(Cl)c(OCC4CC4)cc3[nH]2)c2c(c1=O)CCCC2` [Compound 117, 2-[4-[[5-chloro-6-(cyclopropylmethoxy)-1H-benzimidazol-2-yl]methyl]-1-oxo-5,6,7,8-tetrahydrophthalazin-2-yl]acetic acid], the EC50 was 8.18 nM in assay [1]; 1540 nM in assay [2]; 13200 nM in assay [3]; 33.2 nM at S1PR2; 0.96 nM in the assay with HFL-1 cells [4]; 8.83 nM in the assay on HFL-1 cells [5].
Turning to `O=C(O)Cn1nc(Cc2nc3cc(Cl)c(OCC(F)F)cc3[nH]2)c2c(c1=O)CCCC2` [Compound 119, 2-[4-[[5-chloro-6-(2,2-difluoroethoxy)-1H-benzimidazol-2-yl]methyl]-1-oxo-5,6,7,8-tetrahydrophthalazin-2-yl]acetic acid], the EC50 in assay [1] was 6.58 nM; in assay [2] it was ≥ 19800 nM; in assay [3], 19800 nM; at S1PR2, 23.3 nM; with HFL-1 cells [4], 11.3 nM; in the assay with HFL-1 cells [5] it was 189 nM.
`COc1cc2[nH]c(Cc3nn(CC(=O)O)c(=O)c4c3CCCC4)nc2cc1Cl` [Compound 120, 2-[4-[(5-chloro-6-methoxy-1H-benzimidazol-2-yl)methyl]-1-oxo-5,6,7,8-tetrahydrophthalazin-2-yl]acetic acid]: the EC50 in assay [1] was 57 nM; in assay [2], ≥ 19800 nM; in assay [3], 19800 nM; on S1PR2, 392 nM; with HFL-1 cells [4], 96.7 nM; with HFL-1 cells [5], 822 nM.
For the molecule `CC(C(=O)O)n1nc(Cc2nc3cc(OCC4CC4)c(Cl)cc3[nH]2)c2ccccc2c1=O` (stereo not drawn) [Compound 122, 2-[4-(6-Chloro-5-cyclopropylmethoxy-1H-benzoimidazol-2-ylmethyl)-1-oxo-1H-phthalazin-2-yl]-propionic acid], the EC50 worked out at 13.6 nM in assay [1]; 3720 nM in assay [2]; 19800 nM in assay [3]; 342 nM at S1PR2; 2.29 nM in the assay with HFL-1 cells [4]; 13.3 nM with HFL-1 cells [5].
As for `O=C(O)Cn1cc(Cc2nc3cc(Cl)c(OCC(F)F)cc3[nH]2)c2ccccc2c1=O` [Compound 125, {4-[5-Chloro-6-(2,2-difluoro-ethoxy)-1H-benzoimidazol-2-ylmethyl]-1-oxo-1H-isoquinolin-2-yl}-acetic acid], the EC50 was 24.4 nM in assay [1]; ≥ 19800 nM in assay [2]; 19800 nM in assay [3]; 200 nM at S1PR2; 66.1 nM with HFL-1 cells [4]; 1680 nM with HFL-1 cells [5].
